Holding throughout (assay type): in vivo
Assay [1] concerns adult brown dog ticks (Rhipicephalus sanguineus). In words: Rhipicephalus sanguineus in-vitro contact test, adult brown dog ticks. Conditions: Rhipicephalus sanguineus; 1 μg/cm^2 (=100 g/ha), after 48 hours; read-out: efficacy (ticks dead or moribund). In outline: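 Acetone solution (900 ppm giving 5 μg/cm²) coated on inner walls of glass tubes; after drying, 5-10 adult ticks added and held at room temperature 48 h. Ticks then placed on 45-50 °C plate ≤5 min; those unable to climb away scored dead/moribund, efficacy as % affected.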

In assay [2] the test system is adult Blattella germanica strain PAULINIA
In words: Blattella germanica test (BLTTGE surface treatment & contact assay). The note with it: 24 hours after contact, read-out: efficacy (mortality); for mortality at 4 mg/m2: surface concentration 4 mg/m^2, 30 min exposure; for mortality at 20 mg/m2: surface concentration 20 mg/m^2, 30 min exposure. As to the method:
Blattella germanica Test (BLTTGE Surface Treatment & Contact Assay
Solvent: Aceton+2000 ppm rapeseed oil methyl ester (RME)
In order to produce a sufficient, active ingredient containing solution it is necessary to solve the test compound in the solvent-mix (acetone at 2 mg/ml/RME 2000 ppm). This solution is pipetted onto a glazed tile and after evaporation of the acetone, adult animals of the species Blattella germanica strain PAULINIA are placed onto the dried surface. The exposure time is 30 minutes.
Mortality in percent (%) is determined 24 hours after contact of the insects to the treated surface. 100% mortality means that all tested insects are dead, whereas 0% means that no insect died.

The subject of assay [3] is Rhipicephalus (Boophilus) microplus larvae (strain Parkhurst, resistant against synthetic pyrethroids). In words: Rhipicephalus (Boophilus) microplus in-vitro contact test, larval cattle tick. Conditions: Rhipicephalus microplus; 1 μg/cm^2 (=100 g/ha), after 48 hours; read-out: efficacy (larvae dead or moribund). In outline:
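Compound in acetone coated on glass tube inner walls; 900 ppm solution gives 5 μg/cm^2. Pyrethroid-resistant Parkhurst larvae (20-50 per tube) held at 27° C., 85% relative humidity; efficacy assessed after 48 h by scoring negative geotactic behavior after tapping larvae to tube bottom.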

Assay [4] has as its system fall armyworm larvae (Spodoptera frugiperda). In words: Spodoptera frugiperda spray test (SPODFR). The note with it: 168 h; for mortality at 100 g/ha: in Zea mays. In outline:
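Compound in acetone/dimethylformamide, diluted with water containing 1000 ppm alkylarylpolyglycol ether emulsifier. Maize leaf sections sprayed, dried, then infested with fall armyworm larvae. Mortality (%) scored after 7 days, 100% meaning all caterpillars killed.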

In assay [5] the test system is adult cat fleas (Ctenocephalides felis). Kind of assay: Ctenocephalides felis in-vitro contact test, adult cat flea. Conditions: Ctenocephalides felis; 1 μg/cm^2 (=100 g/ha), after 48 hours; read-out: efficacy (fleas dead or moribund).
The test system of assay [6] is brown planthopper (Nilaparvata lugens). In words: Nilaparvata lugens spray test. The note with it: Nilaparvata lugens, in Oryza sativa, 96 h. In outline: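 Compound dissolved in acetone/dimethylformamide and diluted in water with 1000 ppm alkylarylpolyglycol ether emulsifier. Rice plants sprayed at the test concentration, then infested with brown planthopper; % mortality read after 4 days (100% = all killed, 0% = none).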

Assay [7] deals with adult engorged female ticks (Rhipicephalus microplus). Kind of assay: Rhipicephalus (Boophilus) microplus injection test. Conditions: 4 μg/tick, after 7 days. As to the method: Rhipicephalus (Boophilus) Microplus—Injection Test
Solvent: Dimethyl Sulfoxide
To produce a suitable preparation of active compound, 10 mg of active compound are dissolved in 0.5 mL solvent, and the concentrate is diluted with solvent to the desired concentration.
Five adult engorged female ticks (Rhipicephalus microplus) are injected with 1 μL compound solution into the abdomen. The ticks are transferred into replica plates and incubated in a climate chamber.
After 7 days egg deposition of fertile eggs is monitored. Eggs where fertility is not visible are stored in a climate chamber till hatching after about 42 days. An efficacy of 100% means all eggs are infertile; 0% means all eggs are fertile.

The test system of assay [8] is larvae of the southern green stink bug (Nezara viridula). In words: Nezara viridula spray test. Conditions: Nezara viridula, in Hordeum vulgare, 96 h. In outline: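 Barley plants sprayed with compound in acetone/DMF diluted in water with 1000 ppm alkylarylpolyglycol ether emulsifier, then infested with N. viridula larvae. Mortality (%) scored after 4 days; 100% means all bugs killed.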

In general, mortality refers to the percentage killed. With `C[C@H](NC(=O)c1cc(C(F)(F)F)cc(C(F)(F)F)c1)c1ncnn1-c1cnc(C(=O)N(C)CC2CC2)cn1` [Example I-008], in assay [1], the pest or weed control at 1 µg/cm2, 100 g/ha worked out at 100%. The mortality at 4 mg/m2 in assay [2] was 80 to 100%. In addition, the mortality at 20 mg/m2 in assay [2] was in the range of 80 to 100%. For the same compound, the pest or weed control at 1 µg/cm2 in assay [3] and in assay [5] was 100% each time. This compound had a mortality at 100 g/ha in assay [4] of 100%. Moreover, the mortality at 500 g/ha in assay [6] and in assay [8] was 100% in each case. In addition, the “efficacy (infertile eggs)” value in assay [7] is given as 100%.
For the compound `CNC(=O)c1cnc(-n2ncnc2[C@H](C)NC(=O)c2cc(OC(F)(F)F)cc(C3CC3)c2)cn1` [Example I-021], the pest or weed control at 1 µg/cm2, 100 g/ha in assay [1] turned out to be 100%. The mortality at 4 mg/m2 in assay [2] lay in the range of 80 to 100%. The mortality at 20 mg/m2 in assay [2] was 80 to 100%. Moreover, the pest or weed control at 1 µg/cm2 in assay [3] and in assay [5] was 100% in each case. Besides, the mortality at 100 g/ha in assay [4] was 100%. Further, the mortality at 500 g/ha in assay [6] and in assay [8] was 100% each time.
Regarding `CNC(=O)c1cnc(-n2ncnc2[C@H](C)NC(=O)c2cc(C(F)(F)F)cc(C(F)(F)F)c2)cn1` [Example I-009], the pest or weed control at 1 µg/cm2, 100 g/ha in assay [1] stood at 100%. In addition, the mortality at 4 mg/m2 in assay [2] was 80 to 100%. Further, the mortality at 20 mg/m2 in assay [2] was in the range of 80 to 100%. In addition, the pest or weed control at 1 µg/cm2 in assay [3] and in assay [5] was 100% throughout. The compound further returned a mortality at 100 g/ha in assay [4] of 100%. Further, the mortality at 500 g/ha in assay [6] and in assay [8] was 100% each time. The “efficacy (infertile eggs)” value in assay [7] is 100%.
For the compound `C[C@H](NC(=O)c1cc(C(F)(F)F)cc(C(F)(F)F)c1)c1ncnn1-c1cnc(C(=O)N(C)C2CC2)cn1` [Example I-007], the pest or weed control at 1 µg/cm2, 100 g/ha in assay [1] came to 100%. For the same compound, in assay [2], the mortality at 4 mg/m2 is 80 to 100% and the mortality at 20 mg/m2 was in the range of 80 to 100%. In addition, the pest or weed control at 1 µg/cm2 in assay [3] came out at 100%. Further, in assay [4], the mortality at 100 g/ha was determined as 100%. The pest or weed control at 1 µg/cm2 in assay [5] was determined as 100%. For the same compound, the mortality at 500 g/ha in assay [6] was 100%. For the same compound, the “efficacy (infertile eggs)” value in assay [7] amounted to 100%.
In the case of `C[C@H](NC(=O)c1cc(OC(F)(F)F)cc(C2CC2)c1)c1ncnn1-c1cnc(C(=O)N(C)C)cn1` [Example I-002], the pest or weed control at 1 µg/cm2, 100 g/ha in assay [1] came out at 100%. Also, in assay [2], the mortality at 20 mg/m2 lay within 80 to 100%. The pest or weed control at 1 µg/cm2 in assay [3] and in assay [5] was 100% throughout. Further, in assay [4] (SPODFR, 4 g ai/ha, 7 dat, read-out: % Efficacy), the Emax at 4 g/ha stood at 100%. Further, in assay [4] (SPODFR, 20 g ai/ha, 7 dat, read-out: % Efficacy), the Emax at 20 g/ha came to 100%. The Emax at 100 g/ha in assay [4] (SPODFR, 100 g ai/ha, 7 dat, read-out: % Efficacy) was 100%. In addition, in assay [4], the mortality at 100 g/ha was 100%. The same compound yielded a mortality at 500 g/ha in assay [6] of 90%. The “efficacy (infertile eggs)” value in assay [7] amounted to 100%.

The values are drawn from US20240368125A1, “NOVEL PYRAZINYL-TRIAZOLE COMPOUNDS AS PESTICIDES” (Bayer Aktiengesellschaft, priority 2021, published 2024).
